Source: patent US12729377B2, “RNAi agents and compositions for inhibiting expression of angiopoietin-like 3 (ANGPTL3), and methods of use” (Arrowhead Pharmaceuticals, Inc., priority 2017, dated 2026)
In the oligonucleotide strings, read from the 5' end, every base follows the letter of its sugar. An asterisk marks phosphorothioate; unmarked linkages are phosphodiester. Other units and linkages are bracketed, terminal groups are in braces. A string of capitals states the bases alone. {NAG37} = tridentate N-acetyl-galactosamine targeting ligand, structure (NAG37)s; [invAb] = inverted abasic unit; m = 2'-O-methyl; f = 2'-fluoro

How the values were obtained:
[1] = test system: ANGPTL3 protein; experiment: Example 8: serum ANGPTL3 protein by ELISA in cynomolgus monkeys; format: in vivo, cynomolgus macaque (Macaca fascicularis); settings: for Avg ANGPTL3 protein normalized to pre-treatment: 3.0 mg/kg single SC injection day 1, cynos, n=2; for reduction in ANGPTL3 protein compared to pre-treatment: all measured time points, single 3.0 mg/kg subcutaneous, cynomolgus monkeys
Procedure: (§1) Additional ANGPTL3 RNAi agents were evaluated in cynomolgus monkeys. On day 1, cynomolgus macaque (Macaca fascicularis) primates (also referred to herein as “cynos”) were administered a single subcutaneous injection of 0.3 mL/kg (approximately 1-2 mL volume, depending on animal mass) containing 3.0 mg/kg of one of ANGPTL3 RNAi agent AD05577, AD05307, AD05488, AD05654, or AD05659, each formulated in saline.
(§2) Two (2) cynos in each group were tested (n=2). Blood samples were drawn and serum samples were analyzed on days −8 (pre-dose), 1 (pre-dose), 8, 15, 22, 29, and 36. Cynos were fasted overnight prior to each collection. ANGPTL3 protein levels in serum were measured by ELISA assay (R&D Systems), according to the manufacturer's recommendations. Triglycerides, total cholesterol, high-density lipoprotein (HDL), and low-density lipoprotein (LDL) in serum were measured on a Cobas® Integra 400 (Roche Diagnostics), according to the manufacturer's recommendations.
(§3) The ANGPTL3 protein levels, triglyceride levels, total cholesterol levels, HDL levels, and LDL levels for each animal were normalized. For normalization, the level of ANGPTL3 protein, triglyceride, HDL, and total cholesterol, respectively, for each animal at a time point, was divided by the average pre-treatment level of expression in that animal (in this case at days −8, and 1 (pre-dose)) to determine the ratio of expression “normalized to pre-treatment.”

[2] = test system: ANGPTL3 gene; experiment: Example 8: serum total cholesterol in cynomolgus monkeys; format: in vivo, cynomolgus macaque (Macaca fascicularis); settings: 3.0 mg/kg single SC injection day 1, cynos, n=2
Procedure: as §1, §2, §3

[3] = test system: ANGPTL3 gene; experiment: Example 8: serum HDL in cynomolgus monkeys; format: in vivo, cynomolgus macaque (Macaca fascicularis); settings: 3.0 mg/kg single SC injection day 1, cynos, n=2
Procedure: as §1, §2, §3

[4] = test system: ANGPTL3 gene; experiment: Example 8: serum LDL in cynomolgus monkeys; format: in vivo, cynomolgus macaque (Macaca fascicularis); settings: 3.0 mg/kg single SC injection day 1, cynos, n=2
Procedure: as §1, §2, §3

[5] = test system: ANGPTL3 gene; experiment: Example 2: serum triglycerides in mice; format: in vivo
Procedure: (§4) To assess the in vivo activity of ANGPTL3 RNAi agents that are designed to target different positions on the ANGPTL3 gene, six- to eight-week-old female C57bl/6 mice were used. Pre-dose serum samples were taken at day −1 after a four hour fast. At day 1, each mouse was given a single subcutaneous administration of 200 μl containing either 3 mg/kg (mpk) of an ANGPTL3 RNAi agent in D5W (dextrose in 5% water), or control (D5W) with no RNAi agent, according to the dosing groups recited in Table 7.
(§5) Each of the RNAi agents included a modified sequence and an N-acetyl-galactosamine-containing targeting ligand conjugated to the 5′ terminal end of the sense strand. (See Tables 3, 4, and 5 for modified sequences and targeting ligand structures). The injections were performed between the skin and muscle (i.e. subcutaneous injections) into the loose skin over the neck and shoulder area. Three (3) mice in each group were tested (n=3). Serum was collected on days 8, […], 22, 29, and day 36 (for Groups 1 and 5-11 only). Mice were fasted for four hours prior to each collection. ANGPTL3 protein levels in serum were measured by ELISA assay (R&D Systems), according to the manufacturer's recommendations. Triglycerides, high-density lipoprotein (HDL), and total cholesterol in serum were measured on a Cobas® Integra 400 (Roche Diagnostics), according to the manufacturer's recommendations.
(§6) The ANGPTL3 protein levels, triglyceride levels, HDL levels, and total cholesterol levels for each animal were normalized. For normalization, the level of ANGPTL3 protein, triglyceride, HDL, and total cholesterol, respectively, for each animal at a time point, was divided by the pre-treatment level of expression in that animal (in this case at day −1) to determine the ratio of expression “normalized to pre-treatment.” Expression at a specific time point was then normalized to the D5W control group by dividing the “normalized to pre-treatment” ratio for an individual animal by the mean “normalized to pretreatment” ratio of all mice in the D5W control group.

[6] = test system: ANGPTL3 gene; experiment: Example 2: serum total cholesterol in mice; format: in vivo
Procedure: as §4, §5, §6

[7] = test system: ANGPTL3 gene; experiment: Example 2: serum HDL in mice; format: in vivo
Procedure: as §4, §5, §6

[8] = Day 8, 3.0 mg/kg single subcutaneous dose on day 1, female C57bl/6 mice
[9] = Day 13, 3.0 mg/kg single subcutaneous dose on day 1, female C57bl/6 mice
[10] = Day 22, 3.0 mg/kg single subcutaneous dose on day 1, female C57bl/6 mice
[11] = Day 29, 3.0 mg/kg single subcutaneous dose on day 1, female C57bl/6 mice
[12] = Day 36, 3.0 mg/kg single subcutaneous dose on day 1, female C57bl/6 mice

Substance	Avg ANGPTL3 protein normalized to pre-treatment ([1]; Day 8)	Avg ANGPTL3 protein normalized to pre-treatment ([1]; Day 15)	Avg ANGPTL3 protein normalized to pre-treatment ([1]; Day 22)	Avg ANGPTL3 protein normalized to pre-treatment ([1]; Day 29)	Avg ANGPTL3 protein normalized to pre-treatment ([1]; Day 36)	reduction in ANGPTL3 protein compared to pre-treatment [1]	Avg Total Chol normalized to pre-treatment ([2]; Day 8)	Avg Total Chol normalized to pre-treatment ([2]; Day 15)	Avg Total Chol normalized to pre-treatment ([2]; Day 22)	Avg Total Chol normalized to pre-treatment ([2]; Day 29)	Avg Total Chol normalized to pre-treatment ([2]; Day 36)	Average HDL Normalized to Pre-Treatment ([3]; Day 8)	Average HDL Normalized to Pre-Treatment ([3]; Day 15)	Average HDL Normalized to Pre-Treatment ([3]; Day 22)	Average HDL Normalized to Pre-Treatment ([3]; Day 29)	Average HDL Normalized to Pre-Treatment ([3]; Day 36)	Average LDL Normalized to Pre-Treatment ([4]; Day 8)	Average LDL Normalized to Pre-Treatment ([4]; Day 15)	Average LDL Normalized to Pre-Treatment ([4]; Day 22)	Average LDL Normalized to Pre-Treatment ([4]; Day 29)	also measured
AD05488: RNAi agent duplex: antisense AM07235-AS, sense AM07234-SS (antisense mU*fA*mC*fUmGfAmUfCmAfAmAfUmAfUmGfUmUfGmAfG*mC; sense {NAG37}*[invAb]*mGmCmUmCmAmAmCmAfUfAfUmUmUmGmAmUmCmAmGmUmA*[invAb])	0.423	0.334	0.343	0.276	0.229	reduction	0.840	0.779	0.743	0.674	0.722	0.832	0.695	0.688	0.657	0.622	0.934	0.926	0.891	0.872	Average LDL Normalized to Pre-Treatment ([4]; Day 36): 0.805
AD05307: RNAi agent duplex: antisense AM07001-AS, sense AM07000-SS (chain 1 mU*fU*mU*fGmAfAmUfUmAfAmUfGmUfCmCfAmUfGmGmG*mC; chain 2 {NAG37}*[invAb]*mGmCmCmCmAmUmGmGfAfCfAmUmUmAmAmUmUmCmAmAmA*[invAb])	0.486	0.402	0.726	0.518	0.392	reduction	0.994	1.006	0.905	0.954	0.909	1.007	0.946	0.879	0.998	0.863	1.008	1.102	0.971	1.106	Avg TG (Average Triglycerides Normalized to Pre-Treatment and Control) [5, 8]: 0.504; Avg TG (Average Triglycerides Normalized to Pre-Treatment and Control) [5, 9]: 0.655; Avg TG (Average Triglycerides Normalized to Pre-Treatment and Control) [5, 10]: 0.459; Avg TG (Average Triglycerides Normalized to Pre-Treatment and Control) [5, 11]: 0.629; Avg TG (Average Triglycerides Normalized to Pre-Treatment and Control) [5, 12]: 0.602; Avg Total Chol (Average Total Cholestrol Normalized to Pre-Treatment and Control) [6, 8]: 0.649; Avg Total Chol (Average Total Cholestrol Normalized to Pre-Treatment and Control) [6, 9]: 0.570; Avg Total Chol (Average Total Cholestrol Normalized to Pre-Treatment and Control) [6, 10]: 0.628; Avg Total Chol (Average Total Cholestrol Normalized to Pre-Treatment and Control) [6, 11]: 0.753; Avg Total Chol (Average Total Cholestrol Normalized to Pre-Treatment and Control) [6, 12]: 0.755; Avg HDL (Average HDL Normalized to Pre-Treatment and Control) [7, 8]: 0.633; Avg HDL (Average HDL Normalized to Pre-Treatment and Control) [7, 9]: 0.524; Avg HDL (Average HDL Normalized to Pre-Treatment and Control) [7, 10]: 0.588; Avg HDL (Average HDL Normalized to Pre-Treatment and Control) [7, 11]: 0.724; Avg HDL (Average HDL Normalized to Pre-Treatment and Control) [7, 12]: 0.702; Average LDL Normalized to Pre-Treatment ([4]; Day 36): 0.894
AD05308: RNAi agent duplex: antisense AM07003-AS, sense AM07002-SS (chain 1 mU*fG*mU*fUmGfAmAfUmUfAmAfUmGfUmCfCmAfUmGfG*mA; chain 2 {NAG37}*[invAb]*mUmCmCmAmUmGmGmAfCfAfUmUmAmAmUmUmCmAmAmCmA*[invAb])																					Avg TG (Average Triglycerides Normalized to Pre-Treatment and Control) [5, 8]: 0.375; Avg TG (Average Triglycerides Normalized to Pre-Treatment and Control) [5, 9]: 0.554; Avg TG (Average Triglycerides Normalized to Pre-Treatment and Control) [5, 10]: 0.399; Avg TG (Average Triglycerides Normalized to Pre-Treatment and Control) [5, 11]: 0.473; Avg TG (Average Triglycerides Normalized to Pre-Treatment and Control) [5, 12]: 0.430; Avg Total Chol (Average Total Cholestrol Normalized to Pre-Treatment and Control) [6, 8]: 0.671; Avg Total Chol (Average Total Cholestrol Normalized to Pre-Treatment and Control) [6, 9]: 0.645; Avg Total Chol (Average Total Cholestrol Normalized to Pre-Treatment and Control) [6, 10]: 0.621; Avg Total Chol (Average Total Cholestrol Normalized to Pre-Treatment and Control) [6, 11]: 0.669; Avg Total Chol (Average Total Cholestrol Normalized to Pre-Treatment and Control) [6, 12]: 0.905; Avg HDL (Average HDL Normalized to Pre-Treatment and Control) [7, 8]: 0.634; Avg HDL (Average HDL Normalized to Pre-Treatment and Control) [7, 9]: 0.583; Avg HDL (Average HDL Normalized to Pre-Treatment and Control) [7, 10]: 0.572; Avg HDL (Average HDL Normalized to Pre-Treatment and Control) [7, 11]: 0.606; Avg HDL (Average HDL Normalized to Pre-Treatment and Control) [7, 12]: 0.854
